# Experimental data as given in patent US7749540B2, “Compositions comprising modafinil compounds” (Cephalon, Inc., priority 2000, dated 2010).
# How the values were obtained:
# monkeys = details: single administration; cited from earlier work
# mice = details: single administration; cited from earlier work
# [1] = Water and lipid solubility of modafinil (observation in background)
compound,measurement,setting,value
"NC(=O)C[S+]([O-])C(c1ccccc1)c1ccccc1 (stereo not drawn) [modafinil, 2-(benzhydryl-sulfinyl)acetamide]",nocturnal activity,monkeys,increased nocturnal activity
same,locomotor activity,mice,increased locomotor activity
same,water and lipid solubility,[1],very poor
